Results as given in patent US9796704B2, “Substituted quinazolines as receptor-type kinase inhibitors” (Symphony Evolution, Inc., priority 2002, dated 2017).
pIC50: −log10 of the molar value.

How the values were obtained:
EGFR = EGFR (Homo sapiens (Human), UniProt P00533); test: EGFR kinase inhibition, luciferase-coupled chemiluminescent assay (LCCA); settings: read-out: EGFR IC50
Description: Kinase activity and compound inhibition are investigated using one or more of the three assay formats described below. The ATP concentrations are selected near its Michaelis-Menten constant (KM) for each individual kinase. Dose-response experiments are performed at ten different inhibitor concentrations in a 384-well plate format. […] Typically H is close to unity.
In the LCCA assays, kinase activity is measured by the ATP consumption that is accurately measured by luciferase-coupled chemiluminescence. Greiner 384-well white clear bottom medium binding plates are used for LCCA. Briefly the kinase reaction is initiated by mixing compounds, ATP and kinases in a 20 μL volume. At the end of the kinase reaction, a 20 μL luciferase-luciferin mix is added and the chemiluminescent signal is read on a Wallac Victor^2 reader.

KDR = KDR (Homo sapiens (Human), UniProt P35968); test: KDR kinase inhibition, luciferase-coupled chemiluminescent assay (LCCA); settings: read-out: KDR IC50
KDR, sequence (P35968 807-1356): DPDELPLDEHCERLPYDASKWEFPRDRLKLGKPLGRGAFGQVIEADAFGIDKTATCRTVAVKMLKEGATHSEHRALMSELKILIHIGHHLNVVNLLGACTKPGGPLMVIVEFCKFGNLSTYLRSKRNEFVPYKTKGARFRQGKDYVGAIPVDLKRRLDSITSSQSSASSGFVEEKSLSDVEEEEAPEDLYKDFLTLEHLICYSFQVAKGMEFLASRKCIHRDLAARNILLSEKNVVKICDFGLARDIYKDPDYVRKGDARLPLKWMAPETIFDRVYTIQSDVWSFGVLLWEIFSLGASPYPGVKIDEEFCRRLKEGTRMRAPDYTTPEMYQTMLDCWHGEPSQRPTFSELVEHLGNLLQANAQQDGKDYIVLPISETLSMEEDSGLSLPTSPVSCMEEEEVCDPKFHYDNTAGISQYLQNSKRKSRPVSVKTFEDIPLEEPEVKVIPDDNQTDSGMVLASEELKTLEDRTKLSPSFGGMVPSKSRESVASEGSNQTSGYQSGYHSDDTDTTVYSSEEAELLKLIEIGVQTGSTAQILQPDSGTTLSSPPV

EphB4 = EphB4 (Homo sapiens (Human), UniProt P54760); test: EphB4 kinase inhibition, 33P phosphoryl transfer assay (radiometric); assay type: biochemical
EphB4, sequence (P54760 605-890): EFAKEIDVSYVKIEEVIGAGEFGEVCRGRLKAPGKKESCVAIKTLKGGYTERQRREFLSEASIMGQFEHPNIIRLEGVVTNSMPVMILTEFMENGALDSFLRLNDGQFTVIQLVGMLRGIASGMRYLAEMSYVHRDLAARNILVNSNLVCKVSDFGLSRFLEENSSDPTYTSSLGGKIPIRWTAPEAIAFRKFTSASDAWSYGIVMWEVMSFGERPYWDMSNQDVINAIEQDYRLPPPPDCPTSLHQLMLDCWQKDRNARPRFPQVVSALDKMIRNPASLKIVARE

EphA2 = EphA2 (Homo sapiens (Human), UniProt P29317); test: EphA2 kinase inhibition, luciferase-coupled chemiluminescent assay (LCCA); settings: read-out: EphA2 IC50
EphA2, sequence (P29317 598-890): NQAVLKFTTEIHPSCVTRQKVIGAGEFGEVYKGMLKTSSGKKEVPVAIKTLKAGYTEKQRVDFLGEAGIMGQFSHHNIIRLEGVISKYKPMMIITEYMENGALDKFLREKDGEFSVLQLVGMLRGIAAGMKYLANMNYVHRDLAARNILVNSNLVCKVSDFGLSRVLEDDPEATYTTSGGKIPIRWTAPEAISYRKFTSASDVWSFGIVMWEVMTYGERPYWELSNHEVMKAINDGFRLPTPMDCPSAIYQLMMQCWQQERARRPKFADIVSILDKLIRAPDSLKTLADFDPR

EGFR, sequence (P00533 672-1210): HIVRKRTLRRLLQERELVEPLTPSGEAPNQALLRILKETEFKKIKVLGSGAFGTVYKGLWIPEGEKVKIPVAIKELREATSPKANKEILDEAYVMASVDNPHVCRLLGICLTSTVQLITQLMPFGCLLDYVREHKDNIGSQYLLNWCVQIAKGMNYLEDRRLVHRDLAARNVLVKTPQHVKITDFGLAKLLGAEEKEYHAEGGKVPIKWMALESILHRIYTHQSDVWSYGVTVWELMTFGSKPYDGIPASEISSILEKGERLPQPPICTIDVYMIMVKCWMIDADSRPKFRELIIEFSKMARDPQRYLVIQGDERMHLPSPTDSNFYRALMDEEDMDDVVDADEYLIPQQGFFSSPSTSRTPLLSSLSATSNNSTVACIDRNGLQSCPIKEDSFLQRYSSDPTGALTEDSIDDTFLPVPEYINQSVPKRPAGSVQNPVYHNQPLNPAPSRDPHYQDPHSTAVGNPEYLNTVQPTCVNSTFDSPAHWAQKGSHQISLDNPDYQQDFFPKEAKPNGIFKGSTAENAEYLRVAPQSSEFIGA

SMILES | pIC50 (EGFR) | pIC50 (KDR) | pIC50 (EphB4) | pIC50 (EphA2)
COc1cc2c(Nc3c(F)cccc3F)ncnc2cc1O[C@@H]1CO[C@@H]2[C@H]1OC[C@H]2F [Example 87, 1,4:3,6-dianhydro-2-deoxy-5-O-[4-[(2,6-difluorophenyl)amino]-6-(methyloxy)quinazolin-7-yl]-2-fluoro-D-iditol] | > 7.30 | > 7.30 | – | –
COc1cc2c(Nc3cc(C(F)(F)F)ccc3Cl)ncnc2cc1O[C@@H]1CO[C@@H]2[C@H]1OC[C@H]2F [Example 122, 1,4:3,6-dianhydro-5-O-[4-{[2-chloro-5-(trifluoromethyl)phenyl]amino}-6-(methyloxy)quinazolin-7-yl]-2-deoxy-2-fluoro-D-iditol] | > 7.30 | > 7.30 | – | –
COc1ccc(OC)c(Nc2ncnc3cc(O[C@@H]4CO[C@@H]5[C@H]4OC[C@H]5F)c(OC)cc23)c1 [Example 134, 1,4:3,6-dianhydro-5-O-[4-{[2,5-bis(methyloxy)phenyl]amino}-6-(methyloxy)quinazolin-7-yl]-2-deoxy-2-fluoro-D-iditol] | > 7.30 | > 7.30 | – | –
COc1cc2c(Nc3ccc(Cl)c(Cl)c3)ncnc2cc1OCC1CN(C(=O)OC(C)(C)C)CCO1 (stereo not drawn) [Example 148, 1,1-dimethylethyl 2-({[4-[(3,4-dichlorophenyl)amino]-6-(methyloxy)quinazolin-7-yl]oxy}methyl)morpholine-4-carboxylate] | > 7.30 | > 7.30 | > 7.30 | –
COc1cc2c(Nc3cccc(Cl)c3C)ncnc2cc1O[C@H]1CO[C@H]2[C@@H]1OC[C@@H]2OC [Example 76, 1,4:3,6-dianhydro-2-O-[4-[(3-chloro-2-methylphenyl)amino]-6-(methyloxy)quinazolin-7-yl]-5-O-methyl-L-iditol] | > 7.30 | – | 6.00 to 7.30 | 6.00 to 7.30
CCN1CCN(c2noc(COc3cc4ncnc(Nc5ccc(Cl)c(Cl)c5)c4cc3OC)n2)CC1 [Example 220, N-(3,4-dichlorophenyl)-7-({[3-(4-ethylpiperazin-1-yl)-1,2,4-oxadiazol-5-yl]methyl}oxy)-6-(methyloxy)quinazolin-4-amine] | > 7.30 | – | 6.00 to 7.30 | 6.00 to 7.30
COc1cc2c(Nc3ccc(Cl)c(Cl)c3)ncnc2cc1OCc1csc(CO)n1 [Example 246, [4-({[4-[(3,4-dichlorophenyl)amino]-6-(methyloxy)quinazolin-7-yl]oxy}methyl)-1,3-thiazol-2-yl]methanol] | > 7.30 | – | > 7.30 | > 7.30
COc1cc2c(Nc3ccc(Cl)c(Cl)c3)ncnc2cc1OCCC1CCCCC1 [Example 185, 7-[(2-cyclohexylethyl)oxy]-N-(3,4-dichlorophenyl)-6-(methyloxy)quinazolin-4-amine] | > 7.30 | – | 6.00 to 7.30 | 6.00 to 7.30
COc1cc2c(Nc3ccc(Cl)c(Cl)c3)ncnc2cc1OCc1noc(-c2ccccc2OC)n1 [Example 227, N-(3,4-dichlorophenyl)-6-(methyloxy)-7-[({5-[2-(methyloxy)phenyl]-1,2,4-oxadiazol-3-yl}methyl)oxy]quinazolin-4-amine] | > 7.30 | – | > 7.30 | 6.00 to 7.30

The remaining lines, values ahead:

pIC50 (EGFR) | pIC50 (KDR) | pIC50 (EphB4) | pIC50 (EphA2) | SMILES
> 7.30 | > 7.30 | – | – | COc1cc2c(Nc3ccc(Cl)cc3F)ncnc2cc1O[C@@H]1CO[C@@H]2[C@H]1OC[C@H]2F [Example 109, 1,4:3,6-dianhydro-5-O-[4-[(4-chloro-2-fluorophenyl)amino]-6-(methyloxy)quinazolin-7-yl]-2-deoxy-2-fluoro-D-iditol]
> 7.30 | > 7.30 | – | – | COc1cc2c(Nc3ccc(F)cc3F)ncnc2cc1O[C@@H]1CO[C@@H]2[C@H]1OC[C@H]2F [Example 90, 1,4:3,6-dianhydro-2-deoxy-5-O-[4-[(2,4-difluorophenyl)amino]-6-(methyloxy)quinazolin-7-yl]-2-fluoro-D-iditol]
– | > 7.30 | – | – | COc1cc2c(Nc3ccc(Br)c(Cl)c3)ncnc2cc1O[C@H]1CO[C@H]2[C@@H]1OC[C@H]2OC [Example 78, 1,4:3,6-dianhydro-2-O-[4-[(4-bromo-3-chlorophenyl)amino]-6-(methyloxy)quinazolin-7-yl]-5-O-methyl-D-glucitol]
> 7.30 | > 7.30 | – | – | COc1cc2c(Nc3ccc(Cl)c(Cl)c3)ncnc2cc1OCc1noc(C(C)(C)C)n1 [Example 157, N-(3,4-dichlorophenyl)-7-({[5-(1,1-dimethylethyl)-1,2,4-oxadiazol-3-yl]methyl}oxy)-6-(methyloxy)quinazolin-4-amine]
– | > 7.30 | – | – | COc1cc2c(Nc3ccc(Br)c(Cl)c3)ncnc2cc1O[C@H]1CO[C@H]2[C@@H]1OC[C@@H]2OC [Example 73, 1,4:3,6-dianhydro-2-O-[4-[(4-bromo-3-chlorophenyl)amino]-6-(methyloxy)quinazolin-7-yl]-5-O-methyl-L-iditol]
> 7.30 | – | 6.00 to 7.30 | 4.70 to 6.00 | COc1cc2c(Nc3ccc(Cl)c(Cl)c3)ncnc2cc1OCCN1CCCCC1 [Example 192, N-(3,4-dichlorophenyl)-6-(methyloxy)-7-[(2-piperidin-1-ylethyl)oxy]quinazolin-4-amine]
> 7.30 | > 7.30 | – | – | COc1cc2c(Nc3ccc(Cl)c(Cl)c3)ncnc2cc1OCc1noc(-c2cccc(C(F)(F)F)c2)n1 [Example 166, N-(3,4-dichlorophenyl)-6-(methyloxy)-7-[({5-[3-(trifluoromethyl)phenyl]-1,2,4-oxadiazol-3-yl}methyl)oxy]quinazolin-4-amine]
> 7.30 | – | 6.00 to 7.30 | 6.00 to 7.30 | COc1cc2c(Nc3ccc(Cl)c(Cl)c3)ncnc2cc1OCCN1CCCC1 [Example 191, N-(3,4-dichlorophenyl)-6-(methyloxy)-7-[(2-pyrrolidin-1-ylethyl)oxy]quinazolin-4-amine]
> 7.30 | > 7.30 | – | – | COc1cc2c(Nc3c(F)cc(F)cc3Br)ncnc2cc1O[C@@H]1CO[C@@H]2[C@H]1OC[C@H]2F [Example 120, 1,4:3,6-dianhydro-5-O-[4-[(2-bromo-4,6-difluorophenyl)amino]-6-(methyloxy)quinazolin-7-yl]-2-deoxy-2-fluoro-D-iditol]
> 7.30 | – | 6.00 to 7.30 | 6.00 to 7.30 | COc1cc2c(Nc3ccc(Cl)c(Cl)c3)ncnc2cc1OCCC1OCCCO1 [Example 189, N-(3,4-dichlorophenyl)-7-{[2-(1,3-dioxan-2-yl)ethyl]oxy}-6-(methyloxy)quinazolin-4-amine]
> 7.30 | – | 6.00 to 7.30 | 6.00 to 7.30 | COc1cc2c(Nc3ccc(Cl)c(Cl)c3)ncnc2cc1OCCN1CCOCC1 [Example 190, N-(3,4-dichlorophenyl)-6-(methyloxy)-7-[(2-morpholin-4-ylethyl)oxy]quinazolin-4-amine]
> 7.30 | – | > 7.30 | 6.00 to 7.30 | COc1cc2c(Nc3ccc(Cl)c(Cl)c3)ncnc2cc1OCc1nc(CN2CCOCC2)cs1 [Example 209, N-(3,4-dichlorophenyl)-6-(methyloxy)-7-({[4-(morpholin-4-ylmethyl)-1,3-thiazol-2-yl]methyl}oxy)quinazolin-4-amine]
> 7.30 | – | > 7.30 | 6.00 to 7.30 | COc1cc2c(Nc3ccc(Cl)c(Cl)c3)ncnc2cc1OCc1nc(N2CCOCC2)no1 [Example 205, N-(3,4-dichlorophenyl)-6-(methyloxy)-7-{[(3-morpholin-4-yl-1,2,4-oxadiazol-5-yl)methyl]oxy}quinazolin-4-amine]
